Results from ChEMBL document CHEMBL1139433 (J Med Chem, 2004).
Square brackets hold non-standard residues; d marks the D form. Peptide text beside a SMILES is read from it. Phe(4-NH2) = Nc1ccc(C[C@H](N)C(=O)O)cc1

Biological target: T1, Angiotensin II receptor (AT-1) type-1 (Rattus norvegicus, UniProt P29089+P25095)
T1 sequence (P29089 whole entry): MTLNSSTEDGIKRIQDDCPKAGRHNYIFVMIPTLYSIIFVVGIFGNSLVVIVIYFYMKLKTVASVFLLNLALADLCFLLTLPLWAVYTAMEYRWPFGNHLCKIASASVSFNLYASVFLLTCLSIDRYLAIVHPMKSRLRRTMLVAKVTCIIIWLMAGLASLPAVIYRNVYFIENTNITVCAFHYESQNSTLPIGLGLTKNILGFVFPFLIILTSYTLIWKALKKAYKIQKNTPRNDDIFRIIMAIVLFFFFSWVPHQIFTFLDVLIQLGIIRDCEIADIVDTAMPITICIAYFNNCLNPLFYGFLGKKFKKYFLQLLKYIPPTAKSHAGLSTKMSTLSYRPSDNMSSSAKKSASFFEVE
T1 sequence (P25095 whole entry): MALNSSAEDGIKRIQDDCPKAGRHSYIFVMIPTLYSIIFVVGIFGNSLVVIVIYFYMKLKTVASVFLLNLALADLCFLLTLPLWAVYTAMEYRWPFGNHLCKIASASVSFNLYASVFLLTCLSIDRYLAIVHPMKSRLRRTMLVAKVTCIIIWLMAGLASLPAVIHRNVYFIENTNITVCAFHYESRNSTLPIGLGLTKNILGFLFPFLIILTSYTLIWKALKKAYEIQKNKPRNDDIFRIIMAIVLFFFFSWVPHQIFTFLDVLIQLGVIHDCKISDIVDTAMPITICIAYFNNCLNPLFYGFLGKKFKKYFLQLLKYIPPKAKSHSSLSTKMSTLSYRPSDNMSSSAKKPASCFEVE
Test: Displacement of [125I]-Ang II from rat liver membrane angiotensin II type 1 (AT1) receptor

Ki: > 10 µM
Structure (SMILES): CC[C@H](C)[C@H](NC(=O)[C@H](Cc1ccc(O)cc1)NC(=O)[C@@H](NC(=O)[C@H](CCCN=C(N)N)NC(=O)[C@@H](N)CC(=O)O)C(C)C)C(=O)N[C@@H](Cc1ccc(N)cc1)C(=O)N1CCC[C@H]1C(=O)N[C@@H](Cc1ccccc1)C(=O)O (H-DRVYI[Phe(4-NH2)]PF-OH)
